Entries after “also recorded” stand apart in the source; their conditions may differ.

The test system of assay [1] is PNT1A (normal prostate cells). The assay can be described thus: MTT cell proliferation assay, PNT1A cells. The class given is cell-based. Particulars: 72 h, non-tumoral cells, read-out: Estimated IC50, PNT1A. On the procedure: (§1) LNCaP, PC-3, MCF-7, PNT1A, N27, and NHDF cells were obtained from the American Type Culture Collection (ATCC; Manassas, VA, USA) and were cultured in 75 cm^2 culture flasks at 37 °C in a humidified air incubator with 5% CO2. LNCaP, PC-3, PNT1A, and N27 cells, respectively, were cultured in RPMI 1640 medium (Sigma-Aldrich, Inc. St. Louis, MO, USA) with 10% fetal bovine serum (FBS; Sigma-Aldrich, Inc. St. Louis, MO, USA) and 1% of the antibiotic mixture of 10,000 U/mL penicillin G and […] streptomycin (Sp, Sigma-Aldrich, Inc. St. Louis, MO, USA). MCF-7 cells were cultured in DMEM medium (Sigma-Aldrich, Inc. St. Louis, MO, USA) supplemented with 10% fetal bovine serum (FBS; Sigma-Aldrich, Inc. St. Louis, MO, USA) and 1% antibiotic/antimycotic (10,000 U/mL penicillin G, […] streptomycin, and 25 µg/mL amphotericin B: Ab, Sigma-Aldrich, Inc. St. Louis, MO, USA). Finally, NHDF cells were cultured in RPMI 1640 medium supplemented with 10% FBS, 2 mM L-glutamine, 10 mM HEPES, 1 mM sodium pyruvate, and 1% of the antibiotic/antimycotic Ab, and these cells were used in passages 10th to 14th. For all cell types, the medium was renewed every 2 days until cells nearly reached the confluence state. When cells reach approximately 90–95% confluence, they are gently detached by trypsinization (trypsin-EDTA solution: 0.125 g/L of trypsin and 0.02 g/L of EDTA). Before each experiment, viable cells were counted in a Neubauer chamber by a trypan-blue exclusion assay and adequately diluted in the appropriate complete cell culture medium.
(§2) All tested compounds were dissolved in dimethyl sulfoxide (DMSO; Sigma-Aldrich, Inc. St. Louis, MO, USA) at a concentration of 10 mM and stored at 4 °C. From the mother-solutions, the diluted solutions of the compounds, in different concentrations, were prepared in the respective complete culture medium before each experiment.
(§3) After reaching a confluence state, cells were trypsinized and counted by the trypan-blue exclusion assay and then seeded with an initial density of 2 × 10^4 cells/mL in 96-well culture plates (Nunc, Apogent, Denmark) and left to adhere and grow for 48 h. Subsequently, the medium was removed, and the cells were treated with compound solutions (10 and 50 µM for preliminary studies and 0.01, 0.1, 1, 10, 50, and 100 µM for concentration-response studies) in complete culture medium for 72 h. 5-Fluorouracil (5-FU) was used as a positive control, and untreated cells were used as the negative control. Compounds leading to cell proliferation relative to control clearly below 50%, at 10 µM, or clearly below 25%, at 50 µM, in the screening studies were selected to concentration-response studies in tumoral cell lines. Each experiment was performed in quadruplicate and independently at least two times. The in vitro antiproliferative effects were evaluated by the MTT assay (Sigma-Aldrich, Inc. St. Louis, MO, USA). After the incubation period, the medium was removed, and 100 µL of phosphate buffer saline (PBS, NaCl 137 mM; KCl 2.7 mM; Na2HPO4 10 mM; and KH2PO4 1.8 mM in deionized water with a pH adjusted to 7.4) were used to wash the cells. Then, 100 µL of the MTT solution (5 mg/mL) was prepared in the appropriate serum-free medium and added to each well, followed by incubation for 4 h at 37 °C. Hereafter, the MTT containing medium was removed, and the formazan crystals were dissolved in DMSO. Then, the absorbance was measured at 570 nm using a xMarkTM microplate spectrophotometer from BIO-RAD Laboratories. Cell viability values were expressed as percentages relative to the negative control.

Assay [2] relates to PC-3 cells (androgen-independent prostatic cancer). The assay is described as follows: MTT cell proliferation assay, PC-3 cells. Conditions: 72 h; for decrease on cell proliferation relative to the control: PC-3, 50 µM; for IC50: MTT, tumoral cells, read-out: Estimated IC50, PC-3. It is filed as cell-based. On the procedure: as §1, §2, §3
The subject of assay [3] is N27 cells. The assay can be described thus: Neuroprotection against 6-OHDA-induced toxicity (MTT). It is filed as cell-based, rat. Conditions: 24 h; for protection against 6-OHDA-induced neurotoxicity: 10 and 50 µM together with 50 µM 6-OHDA. On the procedure: (§4) The immortalized rat mesencephalic dopaminergic cell line (N27 cells; a kind gift from Dr. Yoon-Seong Kim, Burnett School of Biomedical Sciences, University of Central Florida) was grown in Roswell Park Memorial Institute (RPMI) 1640 medium (Sigma-Aldrich) containing 2 g/L sodium bicarbonate, 10% fetal bovine serum (FBS; Millipore), and 1 mL/L of penicillin/streptomycin (GIBCO) in a humidified atmosphere of 5% CO2 at 37 °C. Cells were plated at a density of 0.31 × 10^5 cells per cm^2 in 96-well culture plates. In the MTT assay, N27 cells were incubated in the presence of several compounds with 50 μM of 6-OHDA. To assess cell viability, MTT reduction was performed as previously described (Section 2.3) with some modifications. Briefly, after 24 h of cell treatments, 0.5 mg/mL of MTT was added to cells for 4 h at 37 °C. Then, the resultant precipitate was dissolved in 10% SDS and quantified at a wavelength of 570 nm.

Assay [4] has as its system NHDF cells (normal human dermal fibroblasts). The assay is described as follows: MTT cell proliferation assay, NHDF cells. The class given is cell-based. Conditions: 72 h, non-tumoral cells, read-out: Estimated IC50, NHDF. On the procedure:
as §1, §2, §3

The subject of assay [5] is N27 (rat dopaminergic neuronal cells). The assay can be described thus: MTT cell proliferation assay, N27 cells. The class given is cell-based. Particulars: 72 h, non-tumoral cells, read-out: Estimated IC50, N27. On the procedure:
as §1, §2, §3

Assay [6] deals with N27 cells. The assay is described as follows: N27 cell viability after 24 h (MTT), substance alone. The class given is cell-based, rat. Conditions: for effect on N27 cell viability: 10 µM alone; for fold-increase in cell viability compared to 10 µM of the respective compound / fold-increase in cell viability compared to the control: 50 µM alone. On the procedure:
as §4, with “In the MTT assay, N27 cells were incubated in the presence of several compounds with 50 μM of 6-OHDA.” left out

Assay [7] relates to MCF-7 cells (estrogen-responsive breast cancer cells). The assay can be described thus: MTT cell proliferation assay, MCF-7 cells. It is filed as cell-based. Conditions: MTT, 72 h, tumoral cells; read-out: Estimated IC50, MCF-7. How it is done: as §1, §2, §3
In assay [8] the test system is all cell lines (NHDF, PNT1A, N27, LNCaP, PC-3, MCF-7). The assay can be described thus: MTT preliminary screening, all cell lines taken together. The class given is cell-based. Particulars: 50 µM, 72 h. On the procedure: as §1, §2, §3
In assay [9] the test system is LNCaP cells (androgen-dependent prostatic cancer). The assay is described as follows: MTT cell proliferation assay, LNCaP cells. Conditions: 72 h; for effect on LNCaP cell proliferation: 10 µM; for decrease in LNCaP cell proliferation: 50 µM; for IC50: MTT, tumoral cells, read-out: Estimated IC50, LNCaP. It is filed as cell-based. How it is done:
as §1, §2, §3

Turning to `C[C@]12CC[C@H]3[C@@H](C[C@@H]4O[C@@]45C[C@@H](O)CC[C@]35C)[C@@H]1C/C(=C\c1ccco1)C2=O` [Compound 20, (E)-16-(Furan-2-ylmethylene)-3-hydroxy-5α ,6α -epoxy-10,13-dimethyl-1,3,4,7,8,9,10,11,12,13,15,16-dodecahydro-2H-cyclopenta[α ]phenanthren-17(14H)-one], the half-maximal inhibitory concentration (IC50) in assay [1] was 56.6 µM; in assay [4] it was 50 µM; in assay [5] it was 64.5 µM. For the same compound, the “decrease on cell proliferation relative to the control” value in assay [2] was “higher than 75%”. Further, the “protection against 6-OHDA-induced neurotoxicity” value (“protection” below) in assay [3] is on record as “did not counteract; also recorded: no significant neuroprotection”. The “effect on N27 cell viability” value in [6] is recorded as “did not affect cell viability”.

Turning to `CC12CCC3C(CC4OC45CC(O)CCC35C)C1CC(=Cc1ccc([N+](=O)[O-])cc1)C2=O` (stereo not drawn) [Compound 17, (E)-16-(4-Nitrobenzylidene)-3-hydroxy-5α ,6α -epoxy-10,13-dimethyl-1,3,4,7,8,9,10,11,12,13,15,16-dodecahydro-2H-cyclopenta[α ]phenanthren-17(14H)-one], the half-maximal inhibitory concentration (IC50) was 20.8 µM in assay [7], more than 100 µM in assay [1], 32.3 µM in assay [4] and more than 100 µM in [5]. The “protection” value in assay [3] was “did not counteract; also recorded: no significant neuroprotection”. The “effect on N27 cell viability” value in [6] was “did not affect cell viability”. The “fold-increase in cell viability compared to 10 µM of the respective compound” value in [6] turned out to be 1.59 fold. The “fold-increase in cell viability compared to the control” value in assay [6] came to 1.53 fold.

As for `CC12CCC3C(CC4OC45CC(O)CCC35C)C1CCC2C(=O)C=Cc1ccccc1` (stereo not drawn) [cD, 21E-benzylidene-5α,6α-epoxipregnenolone, reference compound], the “protection” value in assay [3] was “did not protect”. In addition, in assay [6], the “effect on N27 cell viability” value is “did not affect cell viability”.

In assay [8], `CC12CCC3C(CC4OC45CC(O)CCC35C)C1CC(=Cc1ccc(Cl)o1)C2=O` (stereo not drawn) [Compound 27, (E)-16-[(5-Chlorofuran-2-yl)methylene]-3-hydroxy-5α ,6α -epoxy-10,13-dimethyl-1,3,4,7,8,9,10,11,12,13,15,16-dodecahydro-2H-cyclopenta[α ]phenanthren-17(14H)-one] displayed a relative cell proliferation not above 50%. Also, in [7], the IC50 was 56.9 µM. The IC50 in assay [1] is 19.5 µM. Also, in [9], the “effect on LNCaP cell proliferation” value is “no relevant effects”, the “decrease in LNCaP cell proliferation” value is “higher than 75%” and the concentration for half-maximal inhibition (IC50) is 15.8 µM. Moreover, in assay [3] (50 µM together with 50 µM 6-OHDA), the “fold-decrease in cell viability compared to 6-OHDA alone” value is listed as 0.9 fold. Moreover, the “protection” value in [3] is on record as “did not counteract; also recorded: no significant neuroprotection”. Further, the IC50 in assay [4] was 18.4 µM. In addition, the IC50 in assay [5] is 42.4 µM. In addition, in [6], the “effect on N27 cell viability” value is listed as “did not affect cell viability”, the “fold-increase in cell viability compared to 10 µM of the respective compound” value is reported as 1.41 fold and the “fold-increase in cell viability compared to the control” value was found to be 1.25 fold.

`CC12CCC3C(CC4OC45CC(O)CCC35C)C1CC(=Cc1ccc(Br)cc1)C2=O` (stereo not drawn) [Compound 25, (E)-16-(4-Bromobenzylidene)-3-hydroxy-5α ,6α -epoxy-10,13-dimethyl-1,3,4,7,8,9,10,11,12,13,15,16-dodecahydro-2H-cyclopenta[α ]phenanthren-17(14H)-one]: in assay [8], the relative cell proliferation is given as not above 50%. Moreover, the IC50 in [7] is 14.5 µM; in [1], 15.3 µM; in assay [9] it was 36.9 µM; in assay [2] it was 14.5 µM; in assay [4] it was 16 µM; in assay [5] it was 15.4 µM. Moreover, the “effect on LNCaP cell proliferation” value in [9] was “no relevant effects”. Further, the “decrease in LNCaP cell proliferation” value in assay [9] is recorded as “higher than 75%”. Also, in assay [2], the “decrease on cell proliferation relative to the control” value was “higher than 75%”.

As for “(E)-16-[(5-Chlorothiophen-2-yl)methylene]-3-hydroxy-5α ,6α -epoxy-10,13-dimethyl-1,3,4,7,8,9,10,11,12,13,15,16-dodecahydro-2H-cyclopenta[α ]phenanthren-17(14H)-one [Compound 26]”, the relative cell proliferation in assay [8] is reported as not above 50%. Also, the half-inhibitory concentration (IC50) in assay [7] was 21.8 µM; in assay [1] it was 15.6 µM; in [9], 11.3 µM; in [2], 43.8 µM; in [4], 16.6 µM; in assay [5] it was 14.3 µM. The “effect on LNCaP cell proliferation” value in [9] was “no relevant effects”. The “decrease in LNCaP cell proliferation” value in assay [9] is recorded as “higher than 75%”. Besides, the “decrease on cell proliferation relative to the control” value in [2] is “higher than 75%”.

Consider `Cc1ccc(C=C2CC3C4CC5OC56CC(O)CCC6(C)C4CCC3(C)C2=O)cc1` (stereo not drawn) [Compound 23, (E)-16-(4-Methylbenzylidene)-3-hydroxy-5α ,6α -epoxy-10,13-dimethyl-1,3,4,7,8,9,10,11,12,13,15,16-dodecahydro-2H-cyclopenta[α ]phenanthren-17(14H)-one], for which the relative cell proliferation in assay [8] is recorded as not above 50%. Besides, the IC50 was 18.7 µM in assay [7]; 13.3 µM in assay [1]; 19.3 µM in assay [9]; 14 µM in assay [2]; 28.3 µM in assay [4]; 12.7 µM in assay [5]. In [9], the “effect on LNCaP cell proliferation” value is “no relevant effects”. Besides, the “decrease in LNCaP cell proliferation” value in assay [9] is listed as “higher than 75%”.

What is called IC50 is the concentration needed to halve the response being measured.

Source of the values: paper PMC10045663, “Synthesis, In Vitro Biological Evaluation of Antiproliferative and Neuroprotective Effects and In Silico Studies of Novel 16E-Arylidene-5α,6α-epoxyepiandrosterone Derivatives” (Biomedicines, 2023).
